Drawing on ChEMBL document CHEMBL1149537, “Design and synthesis of 1,2-dithiolane derivatives and evaluation of their neuroprotective activity” (Bioorg Med Chem Lett, 2007), this text covers EC50 for 15 molecules.

The assay relates to HT-22. In words: Neuroprotective activity against glutamate-induced damage in mouse HT22 cells after 24 hrs. Type of assay: functional, cell-based. To be noted: HT-22, 24 h.
The EC50 is the concentration giving half of the maximal effect. Turning to `COc1ccc(-c2noc(CCCCC3CCSS3)n2)cc1OC` (stereo not given), the EC50 was greater than 10 µM.
`Oc1ccc(-c2noc(CCCCC3CCSS3)n2)cc1O` (stereo not given) yielded an EC50 of 3.63 µM. In other words, the single-digit micromolar range.
`O=C(CCCCC1CCSS1)NCCc1ccc(O)c(O)c1` (stereo not given) came in with an EC50 greater than 10 µM.
The molecule `Oc1ccc(CCc2nnc(CCCCC3CCSS3)o2)cc1O` (stereo not given) showed an EC50 of 4.21 µM.
In turn, `COc1ccc(-c2nnc(CCCCC3CCSS3)o2)cc1OC` (stereo not given) showed an EC50 greater than 10 µM.
Then `Oc1ccc(CCn2nnnc2CCCCC2CCSS2)cc1O` (stereo not given), with 2.99 µM; and `COc1ccc(CCn2nnnc2CCCCC2CCSS2)cc1OC` (stereo not given), with greater than 10 µM.
Molecule `COc1ccc(-c2noc(CCCCC(S)CCS)n2)cc1OC` (stereo not given) registered an EC50 greater than 10 µM.
Molecule `O=C(CCCCC(S)CCS)NCCc1ccc(O)c(O)c1` (stereo not given) came in with an EC50 greater than 10 µM.
In the case of `COc1ccc(-c2csc(CCCCC3CCSS3)n2)cc1OC` (stereo not given), the EC50 is greater than 10 µM.
As to `Oc1ccc(-c2cn(CCCCCC3CCSS3)nn2)cc1O` (stereo not given), the 50% effective concentration (EC50) was 6.23 µM.
`COc1ccc(CCc2nnc(CCCCC3CCSS3)o2)cc1OC` (stereo not given): the EC50 was greater than 10 µM.
Regarding `COc1ccc(-c2cn(CCCCCC3CCSS3)nn2)cc1OC` (stereo not given), the EC50 was greater than 10 µM.
For the molecule `COc1ccc(CCn2nnnc2CCCCC(S)CCS)cc1OC` (stereo not given), the EC50 was greater than 10 µM.
As to `COc1ccc(CCNC(=O)CCCCC2CCSS2)cc1OC` (stereo not given), the EC50 is greater than 10 µM.
